pIC50: −log10 of the molar value.
Experiments:
GIST T1 cells = assay: GIST T1 Cell Proliferation Assay; assay type: cell-based; details: Homo sapiens, GISTT1, 72 h, 68 hours + 4 hours resazurin
Method: (§1) GIST48, GIST430, and GIST882 cells were obtained from J. Fletcher (Brigham and Women's Hospital, Boston, MA). GIST T1 cells were obtained from B. Rubin (Cleveland Clinic, Cleveland, OH) and Professor Takahiro Taguchi (Kochi Medical School, Nankoku, Kochi, Japan). Briefly, GIST48 and GIST 882 cells were grown in RPMI 1640 medium supplemented with 15% characterized fetal bovine serum (Invitrogen, Carlsbad, CA), 1 unit/mL penicillin G, 1 µg/ml streptomycin, and 0.29 mg/mL L-glutamine at 37 °C, 5% CO2, and 95% humidity. GIST430 cells were grown in Ham's F10 medium supplemented with 15% characterized fetal bovine serum (Invitrogen, Carlsbad, CA), 30 mg/L bovine pituitary extract (BD Biosciences, San Jose, CA), 0.5% Mito+ serum extender (BD Biosciences, San Jose, CA), 1 unit/mL penicillin G, 1 µg/ml streptomycin, and 0.29 mg/mL L-glutamine at 37 °C, 5%CO2, 95% humidity. GIST T1 cells were grown in DMEM medium supplemented with 10% characterized fetal bovine serum (Invitrogen, Carlsbad, CA), 1 unit/mL penicillin G, 1 µg/ml streptomycin, and 0.29 mg/mL L-glutamine at 37 °C, 5% CO2, and 95% humidity.
A serial dilution of test compound was dispensed into a 384-well black clear bottom plate (Corning, Corning, NY). One thousand two-hundred fifty cells were added per well in 50 µL complete growth medium. Plates were incubated for 68 hours at 37 °C, 5% CO2, 95% humidity. At the end of the incubation period 10 µL of a 440 µM solution of resazurin (Sigma, St. Louis, MO) in PBS was added to each well and incubated for an additional 4 hours at 37 °C, 5% CO2, 95% humidity. Plates were read on a Synergy2 reader (Biotek, Winooski, VT) using an excitation of 540 nm and an emission of 600 nm.

c-KIT kinase = c-KIT kinase (Homo sapiens, UniProt P10721); assay: c-KIT kinase Assay; assay type: biochemical; parameters: cKIT residues T544-V976; GST (N); TEV cleavage site (internal); purchased deCODE Biostructures; details: enzymatic assay, ATP 200 µM; read-out: KIT (wt) IC50
Method: In this assay, the oxidation of NADH (measured by decrease in absorbance at 340 nm) was continuously monitored spectrophotometrically. […] The absorption at 340 nm was monitored continuously for 2 hours at 30 °C on Synergy 2 (BioTeK). The reaction rate was calculated using the 0 to 1 h time frame. Percent inhibition was obtained by comparison of reaction rate with that of a control (i.e. with no test compound). IC50 values were calculated from a series of percent inhibition values determined at a range of inhibitor concentrations using software routines as implemented in the GraphPad Prism software package. The protein construct was prepared by deCODE Biostructures using procedures known in the art. The construct contains […] of cKit, an N-terminal tag, a GST-fusion sequence and a TEV cleavage site. [formula]

c-KIT T670I kinase = biological target: T1, c-KIT T670I kinase (Homo sapiens, UniProt P10721, T670I); assay: c-KIT T670I kinase assay; assay type: biochemical; details: enzymatic assay
T1 construct: The construct contains residues T544-V976 of cKit; GST (N); TEV cleavage site (internal); purchased deCODE Biostructures
Method: (§2) In this assay, the oxidation of NADH (measured by decrease in absorbance at 340 nm) was continuously monitored spectrophotometrically. […] The inhibition reaction was started by mixing serial diluted test compound with the above reaction mixture. The absorption at 340 nm was monitored continuously for 5 hours at 30 °C on Synergy 2 plate reader (BioTech). […] The protein construct was prepared by deCODE Biostructures using procedures known in the art. The construct contains […] of cKit, an N-terminal tag, a GST-fusion sequence and a TEV cleavage site. This construct is identical to Seq ID no. 1 except for the T670I mutation. [formula] [formula]

c-KIT D816H kinase = biological target: T2, c-KIT D816H kinase (Homo sapiens, UniProt P10721, D816H); assay: c-KIT D816H Kinase Assay; assay type: biochemical; details: enzymatic assay, ATP 200 µM
T2 construct: The construct contains residues T544-V976 of cKit; GST (N); TEV cleavage site (internal); purchased deCODE Biostructures
Method: as §2, with “6” for “5”, “no.” for “no. 1 except for the T670I mutation. [formula] [formula]”

c-KIT V654A kinase = biological target: T3, c-KIT V654A kinase (Homo sapiens, UniProt P10721, V654A); assay: c-KIT V654A Kinase Assay; assay type: biochemical; details: enzymatic assay, ATP 200 µM
T3 construct: residues T544-V976 with N-terminal GST fusion; purchased deCODE Biostructures
Method: (§3) In this assay, the oxidation of NADH (measured by decrease in absorbance at 340 nm) was continuously monitored spectrophotometrically. […] The inhibition reaction was started by mixing serial diluted test compound with the above reaction mixture. The absorption at 340 nm was monitored continuously for 6 hours at 30 °C on Synergy 2 plate reader (BioTech).
(§4) The protein construct was prepared by deCODE Biostructures using procedures known in the art. The construct contains residues T544-V976 of cKit, an N-terminal tag, a GST-fusion sequence and a TEV cleavage site. This construct is identical to Seq ID no.

c-KIT D816V kinase = biological target: T4, c-KIT D816V kinase (Homo sapiens, UniProt P10721, D816V); assay: c-KIT D816V kinase Assay; assay type: biochemical; details: enzymatic assay, ATP 200 uM
T4 construct: residues T544-V976 with N-terminal GST fusion; purchased deCODE Biostructures
Method: as §3, with “5” for “6”
as §4

Phospho-KIT (Tyr719) = assay: GIST48 KIT Western Blot; assay type: cell-based; details: GIST48 cells, 4 hours, serum-free medium; read-out: pKIT suppression by western blot analysi GIST48
Method: as §1, with “Briefly, GIST48 and GIST 882 cells were grown in RPMI 1640 medium supplemented with 15% characterized fetal bovine serum (Invitrogen, Carlsbad, CA), 1 unit/mL penicillin G, 1 µg/ml streptomycin, and 0.29 mg/mL L-glutamine at 37 °C, 5% CO2, and 95% humidity.” left out
Two hundred fifty thousand cells were added per well in a 24-well tissue-culture treated plate. […] Medium was aspirated, cells were washed with PBS, and serum-free RPMI1640 medium was added. […] Cells were washed with PBS, then lysed. Cell lysates were separated by SDS-PAGE and transferred to PVDF. Phospho-KIT (Tyr719) was detected using an antibody from Cell Signaling Technology (Beverly, MA), ECL Plus detection reagent (GE Healthcare, Piscataway, NJ) and a Molecular Devices Storm 840 phosphorimager in fluorescence mode. Blots were stripped and probed for total KIT using an antibody from Santa Cruz Biotech (Santa Cruz, CA). IC50 values were calculated using Prism software (Graphpad, San Diego, CA).

Chain of c-KIT kinase (P10721 544-976): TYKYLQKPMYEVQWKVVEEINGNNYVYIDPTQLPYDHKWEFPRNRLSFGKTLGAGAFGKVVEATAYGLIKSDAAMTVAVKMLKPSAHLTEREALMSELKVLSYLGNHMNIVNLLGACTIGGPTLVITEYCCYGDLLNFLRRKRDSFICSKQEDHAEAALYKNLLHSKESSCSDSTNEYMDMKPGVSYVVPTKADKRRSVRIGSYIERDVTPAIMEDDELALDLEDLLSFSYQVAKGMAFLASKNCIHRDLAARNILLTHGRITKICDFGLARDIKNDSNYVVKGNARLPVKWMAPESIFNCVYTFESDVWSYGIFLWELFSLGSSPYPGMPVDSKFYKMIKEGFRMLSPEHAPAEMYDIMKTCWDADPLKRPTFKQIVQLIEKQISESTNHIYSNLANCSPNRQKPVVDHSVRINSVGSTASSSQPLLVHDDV
T1 sequence (P10721 544-976 T670I): as the sequence (P10721 544-976) above, with T127I counted along it
T3 sequence (P10721 544-976 V654A): as the sequence (P10721 544-976) above, with V111A counted along it
T4 sequence (P10721 544-976 D816V): as the sequence (P10721 544-976) above, with D273V counted along it
T2 sequence (P10721 544-976 D816H): as the sequence (P10721 544-976) above, with D273H counted along it

SMILES	pIC50 (GIST T1 cells)	pIC50 (c-KIT kinase)	pIC50 (c-KIT T670I kinase)	pIC50 (c-KIT D816H kinase)	pIC50 (c-KIT V654A kinase)	pIC50 (c-KIT D816V kinase)	pIC50 (Phospho-KIT (Tyr719))
CCn1c(=O)c(-c2cc(NC(=O)Nc3ccc(F)c(CN4CCCC4)c3)c(F)cc2Cl)cc2cnc(NC)cc21 [Example 97, 1-(4-chloro-5-(1-ethyl-7-(methylamino)-2-oxo-1,2-dihydro-1,6-naphthyridin-3-yl)-2-fluorophenyl)-3-(4-fluoro-3-(pyrrolidin-1-ylmethyl)phenyl)urea]	> 8.00						
CCn1c(=O)c(-c2cc(NC(=O)Nc3ccccc3)c(F)cc2C)cc2cnc(NCCOC)cc21 [Example 37, 1-(5-(1-ethyl-7-(2-methoxyethylamino)-2-oxo-1,2-dihydro-1,6-naphthyridin-3-yl)-2-fluoro-4-methylphenyl)-3-phenylurea]		> 8.00	6.00 to 7.00	7.00 to 8.00	7.00 to 8.00	7.00 to 8.00	
CCn1c(=O)c(-c2cc(NC(=O)Nc3ccccc3)c(F)cc2C)cc2cnc(NC(=O)N3CC(N(C)C)C3)cc21 [Example 113, 3-(dimethylamino)-N-(1-ethyl-3-(4-fluoro-2-methyl-5-(3-phenylureido)phenyl)-2-oxo-1,2-dihydro-1,6-naphthyridin-7-yl)azetidine-1-carboxamide]		7.00 to 8.00	7.00 to 8.00	> 8.00	6.00 to 7.00	7.00 to 8.00	
CCn1c(=O)c(-c2cc(NC(=O)Nc3ccc(F)c(CN4CCOCC4)c3)c(F)cc2Cl)cc2cnc(NC)cc21 [Example 95, 1-(4-chloro-5-(1-ethyl-7-(methylamino)-2-oxo-1,2-dihydro-1,6-naphthyridin-3-yl)-2-fluorophenyl)-3-(4-fluoro-3-(morpholinomethyl)phenyl)urea]	> 8.00	> 8.00	7.00 to 8.00			6.00 to 7.00	
CCn1c(=O)c(-c2cc(NC(=O)Nc3ccccc3)c(F)cc2C)cc2cnc(NC(=O)N3CCC3)cc21 [Example 110, N-(1-ethyl-3-(4-fluoro-2-methyl-5-(3-phenylureido)phenyl)-2-oxo-1,2-dihydro-1,6-naphthyridin-7-yl)azetidine-1-carboxamide]		7.00 to 8.00	7.00 to 8.00	7.00 to 8.00	7.00 to 8.00	7.00 to 8.00	> 8.00
CCn1c(=O)c(-c2cc(NC(=O)Nc3ccc(F)cc3)c(F)cc2Cl)cc2cnc(NCCOC)cc21 [Example 34, 1-(4-chloro-5-(1-ethyl-7-(2-methoxyethylamino)-2-oxo-1,2-dihydro-1,6-naphthyridin-3-yl)-2-fluorophenyl)-3-(4-fluorophenyl)urea]		> 8.00	7.00 to 8.00	7.00 to 8.00	7.00 to 8.00	7.00 to 8.00	
CCn1c(=O)c(-c2cc(NC(=O)Nc3cccc(C#N)c3)c(F)cc2Cl)cc2cnc(NC)cc21 [Example 91, 1-(4-chloro-5-(1-ethyl-7-(methylamino)-2-oxo-1,2-dihydro-1,6-naphthyridin-3-yl)-2-fluorophenyl)-3-(3-cyanophenyl)urea]		> 8.00	7.00 to 8.00	7.00 to 8.00	7.00 to 8.00	7.00 to 8.00	
CCn1c(=O)c(-c2cc(NC(=O)Nc3ccccc3F)c(F)cc2Cl)cc2cnc(NCCOC)cc21 [Example 35, 1-(4-chloro-5-(1-ethyl-7-(2-methoxyethylamino)-2-oxo-1,2-dihydro-1,6-naphthyridin-3-yl)-2-fluorophenyl)-3-(2-fluorophenyl)urea]		> 8.00	6.00 to 7.00	7.00 to 8.00	7.00 to 8.00	7.00 to 8.00	
CC(=O)Nc1cc2c(cn1)cc(-c1cc(NC(=O)Nc3cccc(F)c3)c(F)cc1Cl)c(=O)n2C(C)C [Example 99, N-(3-(2-chloro-4-fluoro-5-(3-(3-fluorophenyl)ureido)phenyl)-1-isopropyl-2-oxo-1,2-dihydro-1,6-naphthyridin-7-yl)acetamide]	> 8.00						
Cc1cc(F)c(NC(=O)Nc2ccccc2)cc1-c1cc2cnc(NC(=O)N3CCC3)cc2n(C(C)C)c1=O [Example 109, N-(3-(4-fluoro-2-methyl-5-(3-phenylureido)phenyl)-1-isopropyl-2-oxo-1,2-dihydro-1,6-naphthyridin-7-yl)azetidine-1-carboxamide]							7.00 to 8.00
CCn1c(=O)c(-c2cc(NC(=O)Nc3ccc(F)c(CN4CCOCC4)c3)c(F)cc2Cl)cc2cnc(NC=O)cc21 [Example 107, N-(3-(2-chloro-4-fluoro-5-(3-(4-fluoro-3-(morpholinomethyl)phenyl)ureido)phenyl)-1-ethyl-2-oxo-1,2-dihydro-1,6-naphthyridin-7-yl)formamide]	7.00 to 8.00						

— patent EP3722296B1, “DIHYDRONAPHTHYRIDINES AND RELATED COMPOUNDS USEFUL AS KINASE INHIBITORS FOR THE TREATMENT OF PROLIFERATIVE DISEASES” (Deciphera Pharmaceuticals, LLC, priority 2012, dated 2013)
